For 1 compound, IC50 results are on record in article PMC13165350, “In Vitro Antiproliferative Effects of Benzothiazole-Based Aminosquaraine Dyes Against Cancer Cell Lines” (Molecules, 2026).

pIC50: −log10 of the molar value.

The test system of the test is MCF-7 cells (breast adenocarcinoma). The test can be described thus: cells. The class given is cell-based. As to conditions: Homo sapiens, MCF7; MTT, 72 h, 0.01–50 µM, dark conditions.

Experimental: The cytotoxic effects of the aminosquaraines 1–8 were evaluated in breast (MCF-7 and T47D) and prostate (LNCaP) cancer cell lines using the MTT assay, as previously described [17]. […] Normal human dermal fibroblasts (NHDF) were included as a non-cancer model to assess tumor selectivity.
In a preliminary screening, cells were exposed to a single concentration (30 µM) of each dye for 72 h to assess metabolic activity.
The studied compounds were dissolved in dimethyl sulfoxide to prepare 10 mM stock solutions and stored at 4 °C. Working solutions were prepared from these stocks at the desired concentrations (30 µM for preliminary studies and 0.01, 0.1, 1, 10, 25, and 50 µM for concentration–response studies) by dilution in complete culture medium immediately before each experiment.
Metabolic activity was assessed by quantifying the reduction of 3-(4,5-dimethylthiazol-2-yl)-2,5-diphenyltetrazolium bromide (MTT), according to a previously described procedure [17]. […] Absorbance was recorded at 570 nm using an xMark™ microplate reader (Bio-Rad, Hercules, CA, USA) using Microplate Manager 6.3 software. Cell viability was calculated as a percentage relative to untreated control cells.
Selectivity indices were determined as the ratio between IC50 values obtained in the NHDF cell line and those obtained in the corresponding tumor cell lines.

Take `O=c1[nH]cc(F)c(=O)[nH]1` [5-FU, 5-fluorouracil]: the pIC50 (commonly the negative decadic logarithm of the IC50, by convention in mol/L) was 5.77.
